Source: patent US6479532B1, “Antifungal compositions” (Fujisawa Pharmaceutical Co., Ltd., priority 1999, dated 2002)
Where a name gives a salt, the structure may show the parent alone. Marks after values point to notes of the source that are not given here.

Tests used:
Assay type in all cases: cell-based
Trichophyton rubrum 7005 = assay: Agar plate dilution assay (checker board), PY + BTF
Protocol: (§1) With Trichophyton spp., each strain was cultured on a Sabouraud's glucose agar (glucose 2%) slant at 25° C. for 2˜3 weeks. Then, about 3˜5 ml of physiological saline supplemented with 0.1% (w/v) Tween 80 and sterilized was added to the above slant culture of the test strain and conidia were liberated by scratching the slant surface with a platinum loop. The collected conidial suspension was filtered through a fine-mesh metal sieve to remove hyphal masses and, then, centrifuged at 3000×g for 10 minutes to concentrate the conidia. The concentrate was resuspended in the same sterile saline solution as above, the conidia were counted with a hemocytometer, and the suspension was adjusted to a predetermined conidial population (10^5 spores/ml).
(§2) Each plate was inoculated with a microbial suspension of predetermined concentration (cells or spores/ml) by the stamping method. Trichophyton spp. were cultured at 25° C. for 2 weeks and Candida spp. were cultured at 30° C. for 2 days. Then, the growth of each test strain was investigated.
(§3) The FIC index was calculated from the MIC value of PY or LC as used alone or PY and LC as used in combination.
(§4) For Trichophyton spp., the same medium as used in Test Example 1 was used.
(§5) With Trichophyton spp., the procedure of Test Example 1 was repeated.
(§6) A 1 mg/ml solution of each drug was prepared by using ethyl alcohol for PY or dimethyl sulfoxide (DMSO) for BTF and diluted to a predetermined concentration using 20% ethyl alcohol as diluent for PY or 10% DMSO as diluent for BTF.
(§7) In the case of Trichophyton spp., 0.5 ml of a PY solution and 0.5 ml of a BTF solution, both of predetermined concentration, were blended with 9 ml of the medium to prepare a drug-containing agar plate and the procedure of test Example 1 was repeated.
(§8) Calculation of the FIC index was also performed in the same manner as in Test Example 1.

Trichophyton rubrum 7030 [1] = assay: as above
Protocol: as §1, §2, §3, §4, §5, §6, §7, §8

[2] = system: Staphylococcus epidermidis 15001; assay: as above; details: drug alone, test strain g, 37° C., 20 hours
Protocol: For the general bacterium (S. epidermidis), Mueller Hinton agar medium was used. The general bacterium was cultured in Mueller Hinton broth medium at 37° C. for 20 hours and the culture was diluted 100-fold with the same medium (10^6 cells/ml) and used. A 1 mg/ml solution of each drug was prepared by using ethyl alcohol for PY or dimethyl sulfoxide (DMSO) for BTF and diluted to a predetermined concentration using 20% ethyl alcohol as diluent for PY or 10% DMSO as diluent for BTF. In the case of the general bacterium, Mueller Hinton agar medium was used to prepare plates and the procedure of Test Example 1 was repeated. After 20 hours of culture at 37° C., the growth of the test organism was investigated. Calculation of the FIC index was also performed in the same manner as in Test Example 1.

Candida albicans 12012 [3] = assay: Agar plate dilution assay (checker board), PY + LC; details: 48 h, drug alone, test strain b, 30° C., 2 days
Protocol: (§9) Sabouraud's glucose agar (glucose 2%) Candida albicans was cultured in Sabouraud's broth medium (glucose 2%) at30° C. for 24 hours and the resulting culture was diluted 10-fold with the same medium as above (10^5 cells/ml) and used. Using ethyl alcohol for PY and dimethyl sulfoxide (DMSO) for LC, a 1 mg/ml solution of each drug was respectively prepared. Then, the solution was diluted to a predetermined concentration using 20% ethyl alcohol as diluent for PY and 10% DMSO as diluent for LC. For the determination of inhibitory activity, 0.5 ml of a PY solution and 0.5 ml of an LC solution, each adjusted to a predetermined concentration were blended with 9 ml of Sabouraud's glucose agar medium to prepare drug-containing plates (checker board method). Each plate was inoculated with a microbial suspension of predetermined concentration (cells or spores/ml) by the stamping method. Trichophyton spp. were cultured at 25° C. for 2 weeks and Candida spp. were cultured at 30° C. for 2 days. Then, the growth of each test strain was investigated. The FIC index was calculated from the MIC value of PY or LC as used alone or PY and LC as used in combination.

Candida albicans YU-1200 = assay: Agar plate dilution assay (checker board), PY + LC; details: YU1200, 48 h, drug alone, test strain a, 30° C., 2 days
Protocol: as §9

Trichophyton rubrum 7010 [4] = assay: Agar plate dilution assay (checker board), PY + LC; details: Trichophyton rubrum, 7010, 336 h
Protocol: (§10) Sabouraud's glucose agar (glucose 2%)
as §1
(§11) Using ethyl alcohol for PY and dimethyl sulfoxide (DMSO) for LC, a 1 mg/ml solution of each drug was respectively prepared. Then, the solution was diluted to a predetermined concentration using 20% ethyl alcohol as diluent for PY and 10% DMSO as diluent for LC.
(§12) For the determination of inhibitory activity, 0.5 ml of a PY solution and 0.5 ml of an LC solution, each adjusted to a predetermined concentration were blended with 9 ml of Sabouraud's glucose agar medium to prepare drug-containing plates (checker board method).
as §2, §3

Trichophyton rubrum 7030 [5] = assay: Agar plate dilution assay (checker board), PY + LC; details: Trichophyton rubrum, 7030, 336 h
Protocol: as §10, §1, §11, §12, §2, §3

Candida albicans 12012 [6] = assay: Fungicidal effect, viable cell count after 24 h in broth
Protocol: Medium used: Sabouraud's (glucose 2%) broth medium
Test strain: Candida albicans 12012
Inoculum size: about 10^4 cells/ml (1% of a 24-hour culture using Sabouraud's broth medium at 30° C.)
To one part by volume of a drug solution prepared at a concentration 10 times the predetermined concentration was added 9 parts by volume of the inoculated Sabouraud's broth medium, followed by mixing. The mixture was incubated at 30° C. for 24 hours and the MIC was determined.
Furthermore, 0.1 ml samples were taken from the test microbial suspensions of varying concentrations and inoculated onto Sabouraud's (glucose 2%) agar plates using Conradi's spreader.
After 2 days of culture at 30° C., the colonies formed were counted and the number of remaining viable cells per 0.1 ml was determined.

Candida albicans 16010 = assay: Agar plate dilution assay (checker board), PY + TF; details: 48 h, drug alone, test organism h, 30° C., 2 days
Protocol: Mueller Hinton agar medium was used for Staphylococcus spp. and Sabouraud's glucose agar (glucose 2%) medium was used for the fungi. Candida albicans was cultured in Sabouraud's broth medium (glucose 2%) at 30° C. for 24 hours and the culture was diluted 10-fold (10^5 cells/ml) with the same medium and used. A 1 mg/ml solution of each drug was prepared using ethyl alcohol for PY or dimethyl sulfoxide (DMSO) for TF and diluted to a predetermined concentration by using 20% ethyl alcohol as diluent for PY or 10% DMSO as diluent for TF. For the determination of the growth-inhibitory effects of drugs on test organisms, drug-containing plates were prepared by blending 0.5 ml of a PY solution and 0.5 ml of a TF solution, both of predetermined concentration, with 9 ml of said medium. The plates were inoculated with the microbial suspensions (cells or spores/ml) by the stamping technique. Trichophyton spp. were cultured at 25° C. for 2 weeks, Candida spp. at 30° C. for 2 days, and Staphylococcus spp. at 37° C. for 20 hours. Then, the growth of each test organism was investigated (checker board method). The FIC index was calculated from the MIC value of PY or TF alone or the two drugs used in combination.

Trichophyton rubrum 7010 [7] = assay: Agar plate dilution assay (checker board), PY + TF
Protocol: (§13) Mueller Hinton agar medium was used for Staphylococcus spp. and Sabouraud's glucose agar (glucose 2%) medium was used for the fungi.
as §1
(§14) A 1 mg/ml solution of each drug was prepared using ethyl alcohol for PY or dimethyl sulfoxide (DMSO) for TF and diluted to a predetermined concentration by using 20% ethyl alcohol as diluent for PY or 10% DMSO as diluent for TF.
(§15) For the determination of the growth-inhibitory effects of drugs on test organisms, drug-containing plates were prepared by blending 0.5 ml of a PY solution and 0.5 ml of a TF solution, both of predetermined concentration, with 9 ml of said medium.
(§16) The plates were inoculated with the microbial suspensions (cells or spores/ml) by the stamping technique. Trichophyton spp. were cultured at 25° C. for 2 weeks, Candida spp. at 30° C. for 2 days, and Staphylococcus spp. at 37° C. for 20 hours. Then, the growth of each test organism was investigated (checker board method).
(§17) The FIC index was calculated from the MIC value of PY or TF alone or the two drugs used in combination.

Trichophyton rubrum 7030 [8] = assay: Agar plate dilution assay (checker board), PY + TF
Protocol: as §13, §1, §14, §15, §16, §17

[9] = system: Staphylococcus aureus FP5; assay: Agar plate dilution assay (checker board), PY + TF; details: drug alone, test organism k, 37° C., 20 hours
Protocol: (§18) Mueller Hinton agar medium was used for Staphylococcus spp. and Sabouraud's glucose agar (glucose 2%) medium was used for the fungi. Staphylococcus spp. were cultured in Mueller Hinton broth medium at 37° C. for 18˜20 hours and diluted 100-fold with the same medium (about 10^6 cells/ml) and this dilution was used as the inoculum. A 1 mg/ml solution of each drug was prepared using ethyl alcohol for PY or dimethyl sulfoxide (DMSO) for TF and diluted to a predetermined concentration by using 20% ethyl alcohol as diluent for PY or 10% DMSO as diluent for TF. For the determination of the growth-inhibitory effects of drugs on test organisms, drug-containing plates were prepared by blending 0.5 ml of a PY solution and 0.5 ml of a TF solution, both of predetermined concentration, with 9 ml of said medium. The plates were inoculated with the microbial suspensions (cells or spores/ml) by the stamping technique. Trichophyton spp. were cultured at 25° C. for 2 weeks, Candida spp. at 30° C. for 2 days, and Staphylococcus spp. at 37° C. for 20 hours. Then, the growth of each test organism was investigated (checker board method). The FIC index was calculated from the MIC value of PY or TF alone or the two drugs used in combination.

[10] = system: Staphylococcus epidermidis 15001; assay: Agar plate dilution assay (checker board), PY + TF; details: drug alone, test organism l, 37° C., 20 hours
Protocol: as §18

[11] = drug concentration 3.13 μg/ml, class symbol
[12] = drug concentration 6.25 μg/ml, class symbol

Question: Which results are given for CN(Cc1ccc(C(C)(C)C)cc1)Cc1cccc2ccccc12 [BTF, Butenafine Hydrochloride]?
Answer: MIC (Trichophyton rubrum 7005): 0.025 µg/mL; MIC (Trichophyton rubrum 7030 [1]): 0.025 µg/mL; MIC [2]: 25 µg/mL

Question: With N#C/C(=C1/SCC(c2ccccc2Cl)S1)n1ccnc1 (centres unmarked) [LC, Lanoconazole] as the molecule, how does the MIC (Candida albicans 12012 [3]) read?
Answer: Its MIC is 25 µg/mL.

Question: What about the MIC (Candida albicans YU-1200) of the same molecule?
Answer: Its MIC is 12.5 µg/mL.

Question: What about the MIC (Trichophyton rubrum 7010 [4]) of the same molecule?
Answer: The MIC was 0.025 µg/mL.

Question: And the MIC (Trichophyton rubrum 7030 [5])?
Answer: The MIC was 0.0125 µg/mL.

Question: And the Viable cell count (Candida albicans 12012 [6]; [11])?
Answer: The Viable cell count was “∞ (∞: 10^3˜10^4)”.

Question: What about the Viable cell count (Candida albicans 12012 [6]; [12]) of the same molecule?
Answer: Its Viable cell count is “∞ (∞: 10^3˜10^4)”.

Question: What about the Viable cell count (Candida albicans 12012 [6]; drug concentration 12.5 μg/ml) of the same molecule?
Answer: The Viable cell count was 876 CFU/0.1 ml.

Question: What about the Viable cell count (Candida albicans 12012 [6]; drug concentration 25 μg/ml) of the same molecule?
Answer: Its Viable cell count is 308 CFU/0.1 ml.

Question: Which MIC (Candida albicans 12012 [3]) does the source give for O=[N+]([O-])c1c(Cl)cccc1-c1c[nH]cc1Cl [PY, Pyrrolnitrin] here?
Answer: Its MIC is 25 µg/mL.

Question: What about the MIC (Candida albicans YU-1200) of the same molecule?
Answer: The MIC was 12.5 µg/mL.

Question: And the MIC (Trichophyton rubrum 7010 [4])?
Answer: The MIC was 0.2 µg/mL.

Question: What about the MIC (Trichophyton rubrum 7030 [5]) of the same molecule?
Answer: Its MIC is 0.2 µg/mL.

Question: And the MIC (Trichophyton rubrum 7005)?
Answer: The MIC was 0.1 µg/mL.

Question: What about the MIC (Trichophyton rubrum 7030 [1]) of the same molecule?
Answer: Its MIC is 0.1 µg/mL.

Question: And the MIC [2]?
Answer: Its MIC is 25 µg/mL.

Question: What about the MIC (Candida albicans 16010) of the same molecule?
Answer: The MIC was 25 µg/mL.

Question: What about the MIC (Trichophyton rubrum 7010 [7]; Trichophyton rubrum, 7010, 336 h) of the same molecule?
Answer: Its MIC is 0.2 µg/mL.

Question: And the MIC (Trichophyton rubrum 7030 [8]; Trichophyton rubrum, 7030, 336 h)?
Answer: Its MIC is 0.39 µg/mL.

Question: What about the MIC [9] of the same molecule?
Answer: The MIC was 25 µg/mL.

Question: And the MIC [10]?
Answer: The MIC was 12.5 µg/mL.

Question: Which results are given for CN(C/C=C/C#CC(C)(C)C)Cc1cccc2ccccc12 [TF, Terbinafine Hydrochloride]?
Answer: MIC (Candida albicans 16010): 50 µg/mL; MIC (Trichophyton rubrum 7010 [7]; 336 h, drug alone, test organism i, Trichophyton rubrum 7010, 25° C., 2 weeks, read-out: MIC): 0.0125 µg/mL; MIC (Trichophyton rubrum 7030 [8]; 336 h, drug alone, test organism j, Trichophyton rubrum 7030, 25° C., 2 weeks, read-out: MIC): 0.0125 µg/mL; MIC [9]: 50 µg/mL; MIC [10]: 25 µg/mL

Question: Which results are given for Pyrrolnitrin?
Answer: Viable cell count (Candida albicans 12012 [6]; [11]): ∞ (∞: 10^3˜10^4); Viable cell count (Candida albicans 12012 [6]; [12]): ∞ (∞: 10^3˜10^4); Viable cell count (Candida albicans 12012 [6]; drug concentration 12.5 μg/ml): 1012 CFU/0.1 ml; Viable cell count (Candida albicans 12012 [6]; drug concentration 25 μg/ml): 1 CFU/0.1 ml
